According to patent publication EP0934252B1, “AMIDE DERIVATIVES AND THEIR USE AS PESTICIDES” (BAYER AG, priority 1996, dated 1998):

Legend:
Phytophthora infestans = type: in vivo; conditions: Tomate, protektiv; for Wirkungsgrad in %: Aufwandmenge an Wirkstoff 50 g/ha, evaluated 3 days after inoculation, 0 % = as control, 100 % = no infestation; for Wirkungsgrad: Wirkstoffaufwandmenge 50 g/ha, summary sentence in the text for both compounds
[1] = logP (physical data of the preparation examples); type: physicochemical

SMILES	Wirkungsgrad in % (Phytophthora infestans)	Wirkungsgrad (Phytophthora infestans)	logP [1]
COc1ccc(CCNC(=O)C(=O)c2ccc3c(c2)CCCC3)cc1OC [Beispiel 1, N-[2-(3,4-Dimethoxyphenyl)-ethyl]-2-oxo-2-(5,6,7,8-tetrahydronaphthalin-2-yl)-acetamid]	95%	90 -95%	3.24
COc1ccc(CCNC(=O)C(O)c2ccc3c(c2)CCCC3)cc1OC (stereo not shown) [Beispiel 2, N-[2-(3,4-Dimethoxyphenyl)-ethyl]-2-hydroxy-2-(5,6,7,8-tetrahydronaphthalin-2-yl)-acetamid]	–	–	2.43
COc1ccc(CCNC(=O)C(=O)c2ccc3c(c2)CCC3)cc1OC [Beispiel 3]	90%	90 -95%	2.92
COc1ccc(CCNC(=O)C(=O)c2ccc3c(c2)CCCCC3)cc1OC [Beispiel 4]	–	–	3.57
COc1ccc(CCNC(=O)C(O)c2ccc3c(c2)CCC3)cc1OC (stereo not shown) [Beispiel 5]	–	–	2.19
COc1ccc(CCNC(=O)C(O)c2ccc3c(c2)CCCCC3)cc1OC (stereo not shown) [Beispiel 6]	–	–	2.7
